# Assays:
# Assay in all cases: relative viability (nuclei count vs DMSO), 5 days (fraction); higher = more cells survive
# Pictilisib + Alpelisib = compound: CS(=O)(=O)N1CCN(Cc2cc3nc(-c4cccc5[nH]ncc45)nc(N4CCOCC4)c3s2)CC1 [Pictilisib] + Cc1nc(NC(=O)N2CCC[C@H]2C(N)=O)sc1-c1ccnc(C(C)(C)C(F)(F)F)c1 [Alpelisib] (partner 2 µM)
# Method in brief: (§1)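 One day after seeding in 1536-well plates, lung cancer cell lines were dosed by pin tool. Dosing was either single-drug or a fixed anchor-drug dose plus five library-drug doses (not always all listed) in √10 steps. After 5 days, nuclei were stained in one fix-and-stain step and counted on 4× images, and relative viability is the nuclei count of treated wells over that of vehicle wells, given as the median of duplicate plates.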
# MK-2206 + AZD7762 = compound: NC1(c2ccc(-c3nc4ccn5c(=O)[nH]nc5c4cc3-c3ccccc3)cc2)CCC1 [MK-2206] + NC(=O)Nc1cc(-c2cccc(F)c2)sc1C(=O)N[C@H]1CCCNC1 [AZD7762] (partner 0.2 µM)
# Method in brief: as §1
# MK-2206 + Navitoclax = compound: NC1(c2ccc(-c3nc4ccn5c(=O)[nH]nc5c4cc3-c3ccccc3)cc2)CCC1 [MK-2206] + CC1(C)CCC(c2ccc(Cl)cc2)=C(CN2CCN(c3ccc(C(=O)NS(=O)(=O)c4ccc(N[C@H](CCN5CCOCC5)CSc5ccccc5)c(S(=O)(=O)C(F)(F)F)c4)cc3)CC2)C1 [Navitoclax] (partner 0.5 µM)
# Method in brief: as §1
# Pictilisib + Bortezomib = compound: CS(=O)(=O)N1CCN(Cc2cc3nc(-c4cccc5[nH]ncc45)nc(N4CCOCC4)c3s2)CC1 [Pictilisib] + CC(C)C[C@H](NC(=O)[C@H](Cc1ccccc1)NC(=O)c1cnccn1)B(O)O [Bortezomib] (partner 0.002 µM)
# Method in brief: as §1
# Pictilisib + Navitoclax = compound: CS(=O)(=O)N1CCN(Cc2cc3nc(-c4cccc5[nH]ncc45)nc(N4CCOCC4)c3s2)CC1 [Pictilisib] + CC1(C)CCC(c2ccc(Cl)cc2)=C(CN2CCN(c3ccc(C(=O)NS(=O)(=O)c4ccc(N[C@H](CCN5CCOCC5)CSc5ccccc5)c(S(=O)(=O)C(F)(F)F)c4)cc3)CC2)C1 [Navitoclax] (partner 0.5 µM)
# Method in brief: as §1
Cell Line,relative viability (Pictilisib + Alpelisib; first compound 0.02 µM),relative viability (Pictilisib + Alpelisib; first compound 0.06325 µM),relative viability (Pictilisib + Alpelisib; first compound 0.6325 µM),relative viability (Pictilisib + Alpelisib; first compound 2 µM),relative viability (MK-2206 + AZD7762; first compound 0.01 µM),relative viability (MK-2206 + AZD7762; first compound 0.03162 µM),relative viability (MK-2206 + AZD7762; first compound 0.3162 µM),relative viability (MK-2206 + AZD7762; first compound 1 µM),relative viability (MK-2206 + Navitoclax; first compound 0.01 µM),relative viability (MK-2206 + Navitoclax; first compound 0.03162 µM),relative viability (MK-2206 + Navitoclax; first compound 0.3162 µM),relative viability (MK-2206 + Navitoclax; first compound 1 µM),relative viability (Pictilisib + Bortezomib; first compound 0.02 µM),relative viability (Pictilisib + Bortezomib; first compound 0.06325 µM),relative viability (Pictilisib + Bortezomib; first compound 0.6325 µM),relative viability (Pictilisib + Bortezomib; first compound 2 µM),relative viability (Pictilisib + Navitoclax; first compound 0.02 µM),relative viability (Pictilisib + Navitoclax; first compound 0.06325 µM),relative viability (Pictilisib + Navitoclax; first compound 0.6325 µM),relative viability (Pictilisib + Navitoclax; first compound 2 µM)
HCC-44,0.893,0.79,0.674,0.412,0.961,0.98,1.04,1.02,0.868,0.962,0.868,0.818,1.04,0.9,0.994,0.631,0.974,0.848,0.866,0.622
HCC-78,0.332,0.279,0.289,0.19,0.66,0.608,0.624,0.538,0.735,0.875,0.732,0.488,0.458,0.384,0.294,0.2,0.809,0.594,0.45,0.231
HCC-366,0.452,0.386,0.335,0.174,0.26,0.204,0.244,0.18,1.04,1.11,0.736,1.04,1.08,1.01,0.691,0.189,1.04,1.06,0.908,0.195
HCC-827,1.02,0.829,0.892,0.518,0.325,0.184,0.227,0.186,1.06,1.12,1.04,1.01,1.03,1.03,1.14,1.03,1.11,0.978,1.02,0.865
HOP-62,1.09,0.854,0.788,0.935,0.734,0.336,0.437,0.71,0.909,1.24,1.02,1.1,1.15,0.986,0.693,0.652,0.955,1.1,1.06,1.01
LC-2-ad,0.918,0.828,0.634,0.484,0.815,0.868,0.889,0.782,0.423,0.506,0.288,0.3,1.05,1,0.633,0.56,0.606,0.415,0.17,0.143
LCLC-97TM1,0.268,0.353,0.265,0.176,0.294,0.12,0.285,0.333,0.522,0.499,0.404,0.361,0.807,0.998,0.374,0.184,0.288,0.768,0.221,0.107
LOU-NH91,0.742,0.741,0.697,0.585,0.8,0.751,0.705,0.605,0.702,0.745,0.749,0.621,0.456,0.455,0.502,0.401,0.822,0.735,0.573,0.408
LU99A,0.461,0.61,0.413,0.287,0.376,0.169,0.332,0.362,0.862,0.77,0.72,0.822,1.36,1.18,0.757,0.514,0.818,0.638,0.574,0.361
LXF-289,1.08,1.07,1.06,0.822,1.06,1.01,1.12,1.15,0.914,1.01,1.01,0.972,1.04,1.05,0.993,0.819,0.97,0.935,0.992,0.827
NCI-H23,0.728,0.77,0.827,0.487,0.333,0.192,0.188,0.229,0.956,0.899,0.947,0.811,0.936,1.12,0.768,0.445,0.852,0.899,0.665,0.372
NCI-H322M,0.845,0.8,0.872,0.684,0.58,0.576,0.563,0.516,1.14,1.13,1.25,1.1,1.11,1.2,0.873,0.907,1.23,1.22,0.956,1.14
NCI-H441,0.735,0.833,0.698,0.541,1.27,0.941,1.25,0.869,0.77,0.639,0.6,0.505,0.702,0.373,0.41,0.338,0.856,0.64,0.505,0.413
NCI-H460,0.509,0.521,0.301,0.141,0.692,0.366,0.612,0.644,1.16,1.16,1.21,1.07,1.1,1.36,0.57,0.111,1.15,1.07,0.563,0.201
NCI-H596,0.476,0.481,0.523,0.36,1.16,1.06,1.05,1.01,0.948,1.06,0.756,0.669,1.02,1.09,0.487,0.435,0.736,0.835,0.645,0.206
NCI-H647,1.09,1.26,0.894,0.467,0.46,0.356,0.521,0.473,1.02,1.21,0.969,1.02,1.19,1.07,0.965,0.513,1.27,1.03,0.928,0.351
NCI-H727,0.715,0.55,0.519,0.376,0.563,0.485,0.58,0.575,0.424,0.367,0.212,0.314,0.992,0.941,0.784,0.609,0.55,0.433,0.303,0.156
NCI-H838,1.04,0.968,1.02,0.467,0.935,0.872,0.969,0.906,1.15,1.19,1.19,1.04,0.77,0.744,0.606,0.313,1.12,1.04,1.01,0.61
NCI-H1355,0.828,0.741,0.865,0.505,0.664,0.557,0.681,0.6,0.961,0.828,0.961,0.819,1.23,1.2,1.14,0.678,0.941,0.902,0.828,0.501
NCI-H1437,0.932,0.912,0.68,0.566,1.18,1.11,1.16,1.09,1.07,1.16,1.18,1.09,0.582,0.488,0.532,0.231,1.16,1.14,1.04,0.677
NCI-H1651,0.969,0.906,0.765,0.516,0.506,0.367,0.466,0.438,0.994,1.05,1.02,0.998,0.948,0.939,0.911,0.707,1.02,0.926,0.9,0.53
NCI-H1666,0.982,0.989,0.748,0.428,0.808,0.858,0.962,0.806,0.953,0.927,0.81,0.655,0.854,0.744,0.545,0.388,0.972,0.835,0.62,0.438
NCI-H1703,0.435,0.314,0.227,0.195,0.14,0.105,0.112,0.112,1.15,0.961,0.621,0.776,0.327,0.235,0.19,0.13,1.38,0.805,0.305,0.204
NCI-H1734,0.709,0.588,0.546,0.406,0.576,0.244,0.471,0.399,0.848,0.85,0.584,0.681,0.995,0.903,0.585,0.335,0.797,0.874,0.554,0.264
NCI-H1755,0.924,0.939,0.892,0.506,0.508,0.328,0.458,0.432,1.02,0.985,0.829,0.895,1.01,0.906,0.86,0.339,1.01,1,0.889,0.571
NCI-H1792,0.72,0.715,0.657,0.36,0.613,0.702,0.529,0.293,0.603,0.706,0.655,0.578,0.986,0.962,0.835,0.418,0.641,0.728,0.383,0.226
NCI-H1915,1.08,1.11,0.998,1.07,0.74,0.573,0.735,0.576,0.813,0.83,0.835,0.784,0.981,1.03,0.606,0.9,0.811,0.789,0.797,0.789
NCI-H1975,0.69,0.564,0.41,0.227,0.745,0.748,0.595,0.582,1.05,0.969,0.938,0.787,0.358,0.443,0.284,0.239,1.02,0.936,0.707,0.314
NCI-H1993,0.656,0.712,0.663,0.625,0.804,0.864,0.483,0.475,0.901,0.801,0.678,0.649,0.984,1.04,0.601,0.448,0.943,0.845,0.664,0.637
NCI-H2085,1.01,0.959,0.74,0.419,0.85,0.954,0.918,0.769,1.09,1.19,0.902,0.825,1.08,1.07,0.871,0.467,1.08,1.17,0.864,0.416

# From the supplement of paper PMC10307832
